Experimental data from patent publication US10709784B2, “Metal chelating compositions and methods for controlling the growth or activities of a living cell or organism” (CHELATION PARTNERS INCORPORATED, priority 2011, dated 2020).
≈ marks a conversion by molar mass, not a printed value. Like-named read-outs stand apart in the source and are kept apart here.

What was measured:
Format in all cases: cell-based
[1] = system: Candida albicans ATCC 10231; assay: Growth with chelating materials of different molecular weight, 84 hours; conditions: 30° C., defined medium without added iron, FIG. 8
Method: Candida albicans ATCC 10231 was tested for its sensitivities to: the medical chelator deferiprone (#1 in the graph of FIG. 8) (a product of Apotex Pharmaceuticals); the precursor chemicals used for the preparation of soluble chelating compositions of the present invention, including 3-hydroxy-2-methyl-4-pyrone (#2 in the graph of FIG. 8), AHMP as from Example 1 (#3 in the graph of FIG. 8) and MAHMP as from Example 2 (#4 in the graph of FIG. 8) and also the soluble chelating composition as from Example 4 (#5 in the graph of FIG. 8). The yeast was grown in defined medium as for Example 18 with no additional added iron (i.e., the only but adequate Fe available for the yeast was contributed from being present along with the other added medium components). Growth of the yeast in the defined media with added test chelating materials was compared to control samples that had not received any of the chelating materials following 84 hours of incubation and growth at 30° C. […] These chelators being internalized by the yeast were incapable of restricting iron supply to the yeast cells. […] Thus, low molecular weight chelators such as deferiprone and similar compounds permitted growth while the soluble chelating composition that contained functional groups similar to deferiprone but was a molecular weight higher than 1500 Daltons restricted growth, eventhough the various compounds tested were each capable of binding iron through their pyridinone functionality.

[2] = system: Pseudomonas aeruginosa strain PA01; assay: Antibiotic MIC in untreated versus iron-extracted RPMI
Text: (§1) Test microorganisms included Pseudomonas aeruginosa strain PA01, Escherichia coli ATCC #25922 and Staphylococcus aureus ATCC #29213.

[3] = system: Escherichia coli ATCC #25922; assay: as above
Text: as §1

[4] = system: Staphylococcus aureus ATCC #29213; assay: as above
[5] = system: Candida albicans ATCC 10231; assay: Fluorocytosine MIC (80% growth inhibition) with soluble chelator
Method: Candida albicans ATCC 10231, yeast cells, as grown in defined medium with no additional added Fe as in example 18 and example 19, were tested in the same media for their sensitivities to 5-fluorocytosine, as a proto-typical example of the class of […] that are commonly used to control fungal and cancer cell growth in humans and with fluorocytosine plus the soluble chelating composition, as prepared in example 4.

[6] = system: antibiotic resistant strains of Staphylococcus aureus; assay: NCCLS MIC antibiotic sensitivity with added chelator; conditions: for MIC penicillin: Strain WBG8701
Method: Sensitive or antibiotic resistant strains of Staphylococcus aureus (S. aureus) were grown on blood agar plates overnight at 37° C. Four to six individual colonies of each strain were harvested into Mueller-Hinton broth (MHB) and incubated at 37° C. until they reached an optical density equal to or exceeding a 0.5 McFarland standard. The culture was diluted with MHB to equal 0.5 McFarland standard. Dilutions (10^−1) of these standards were used for inocula. Various stains of antibiotic resistant Staphylococcus aureus were used for these tests as shown in the results below. It should be appreciated that growing the bacterial strains on blood agar and then in MHB ensured the inoculum was not restricted for iron prior to the test but rather the bacterial cells were with ample endogenous iron supply.
A range of two-fold dilutions of a test antibiotic was prepared in MHB. […] Soluble and insoluble chelating compositions, as prepared in Example 6 or Example 5, or the free iron chelating agent deferiprone were added to the antibiotic containing tubes at known concentrations of iron binding capacity (referred to as iron binding equivalents) to allow direct comparison of the different compositions or free chelator. The final volume per tube was 500 μl. Bacterial inoculum, 25 μl of the 10^−1 dilutions of the appropriate S. aureus strain was added to each tube. The tubes were incubated at an angle on a reciprocating shaker at 37° C. overnight and results were scored as growth based on turbidity or no growth (lack of turbidity). The Minimum Inhibitory Concentration (MIC) for the antibiotic was determined from the growth results.
A series of tests was set up as in Example 15 with various antibiotic anti-cellular agents. The clinically isolated strains were obtained from the culture collection of Warren Grubb, Curtin University, Perth, Australia.
A series of antibiotic sensitivity tests was set up as in example 16 utilizing the soluble chelating compositions as prepared in Example 6. Separate test series with different clinically isolated Staphylococcus aureus strains, as obtained from the culture collection of Warren Grubb, Curtin University, Perth, Australia, and various antibiotics were employed but for each series a control test comprising addition of iron sufficient to supply two times the chelating capacity of the supplied chelating composition was also included.

[7] = system: Candida albicans ATCC 10231; assay: Nystatin MIC (80% growth inhibition) with soluble chelator
Method: Candida albicans ATCC 10231, yeast cells, as grown in defined medium with no additional added Fe as in example 18 and example 19, were tested in the same media for their sensitivities to nystatin, an antifungal agent as proto-typical of the class of polyene antibiotics that are commonly used to control fungal growth and pathogenesis in humans and with nystatin plus the soluble chelating composition, as prepared in example 4. Nystatin as typical of the polyene class of antifungal agents causes membrane damage as part of its mechanism of anti-fungal activity.

[8] = system: Candida albicans ATCC 10231; assay: Preservative agent MIC (80% inhibition) challenge test with soluble chelator
[9] = Pseudomonas aeruginosa, PA01, Treated RPMI + 0.09 μM Fe, read-out: MIC
[10] = Pseudomonas aeruginosa, PA01, Untreated RPMI 0.11 μM Fe, read-out: MIC
[11] = Escherichia coli, ATCC25922, Treated RPMI + 0.009 μM Fe, read-out: MIC
[12] = Escherichia coli, ATCC25922, Untreated RPMI 0.11 μM Fe, read-out: MIC
[13] = Staphylococcus aureus, ATCC29213, Treated RPMI + 0.004 μM Fe, read-out: MIC
[14] = Staphylococcus aureus, ATCC29213, Untreated RPMI 0.11 μM Fe, read-out: MIC
[15] = strain WBG525, No Chelator Added (control)
[16] = strain WBG525, plus Soluble Chelating Composition (Example 6) 1.1 mM Fe binding equivalents, * slight growth <5% of control
[17] = strain WBG525, plus Soluble Chelating Composition (Example 6) 2.2 mM Fe binding equivalents, * slight growth <5% of control
[18] = strain WBG4340, No Chelator Added (control)

Compound: Cc1occc(=O)c1O [3-hydroxy-2-methyl-4-pyrone]
- growth of the yeast compared to control [1]: did not substantially restrict growth

Compound: Cc1c(O)c(=O)ccn1CCN [AHMP, 1-aminoethyl-3-hydroxy-2-methyl-4(1H)-pyridinone]
- growth of the yeast compared to control [1]: did not substantially restrict growth

Compound: CC1(C)S[C@@H]2[C@H](NC(=O)[C@H](N)c3ccccc3)C(=O)N2[C@H]1C(=O)O [Ampicillin]
- MIC [2, 9]: > 512 µg/mL
- MIC [2, 10]: > 512 µg/mL
- MIC [3, 11]: 4 µg/mL
- MIC [3, 12]: 4 µg/mL (≈ 11.4 µM)
- MIC [4, 13]: 0.25 µg/mL
- MIC [4, 14]: 1 µg/mL (≈ 2.86 µM)

Compound: O=C(O)c1cn(C2CC2)c2cc(N3CCNCC3)c(F)cc2c1=O [Ciprofloxacin]
- MIC [2, 9]: 1 µg/mL
- MIC [2, 10]: 4 µg/mL (≈ 12.1 µM)
- MIC [3, 11]: 0.008 µg/mL
- MIC [3, 12]: 0.0078 µg/mL (≈ 0.0235 µM)
- MIC [4, 13]: 0.25 µg/mL
- MIC [4, 14]: 0.5 µg/mL (≈ 1.51 µM)

Compound: CC[C@H]1OC(=O)[C@H](C)[C@@H](O[C@H]2C[C@@](C)(OC)[C@@H](O)[C@H](C)O2)[C@H](C)[C@@H](O[C@@H]2O[C@H](C)C[C@H](N(C)C)[C@H]2O)[C@](C)(OC)C[C@@H](C)C(=O)[C@H](C)[C@@H](O)[C@]1(C)O [Clarithromycin]
- MIC [2, 9]: > 512 µg/mL
- MIC [2, 10]: > 512 µg/mL
- MIC [3, 11]: 16 µg/mL
- MIC [3, 12]: > 512 µg/mL
- MIC [4, 14]: 1 µg/mL (≈ 1.34 µM)

Compound: Nc1nc(=O)[nH]cc1F [Fluorocytosine, 5-fluorocytosine]
- MIC ([5]; ATCC10231, 96 h, Fluorocytosine alone, 4 d): 0.025 µg/mL (≈ 0.194 µM)
- MIC ([5]; ATCC10231, 96 h, plus 25 μg/ml soluble chelator (example 4), 4 d): < 0.003 µg/mL
- MIC ([5]; ATCC10231, 240 h, Fluorocytosine alone, 10 d): 0.05 µg/mL (≈ 0.387 µM)
- MIC ([5]; ATCC10231, 240 h, plus 25 μg/ml soluble chelator (example 4), 10 d): 0.012 µg/mL
- MIC ([5]; ATCC10231, 504 h, Fluorocytosine alone, 21 d): 0.05 µg/mL (≈ 0.387 µM)
- MIC ([5]; ATCC10231, 504 h, plus 25 μg/ml soluble chelator (example 4), 21 d): 0.012 µg/mL

Compound: CC(=O)O[C@H]1C[C@@]2(C)[C@@H](C[C@@H](O)[C@H]3[C@@]4(C)CC[C@@H](O)[C@@H](C)[C@@H]4CC[C@@]32C)/C1=C(\CCC=C(C)C)C(=O)O [Fusidic acid]
- MIC [2, 9]: > 512 µg/mL
- MIC [2, 10]: > 512 µg/mL
- MIC [3, 11]: > 512 µg/mL
- MIC [3, 12]: > 512 µg/mL
- MIC [4, 13]: 0.0625 µg/mL
- MIC [4, 14]: 0.25 µg/mL (≈ 0.484 µM)

Compound: NC[C@H]1O[C@H](O[C@H]2[C@H](O)[C@@H](O[C@H]3O[C@H](CO)[C@@H](O)[C@H](N)[C@H]3O)[C@H](N)C[C@@H]2N)[C@H](O)[C@@H](O)[C@@H]1O [Kanamycin]
- MIC (100% inhibition) antibiotic [6, 15]: 320 µg/mL (≈ 660 µM)
- MIC (100% inhibition) antibiotic [6, 16]: 20 µg/mL
- MIC (100% inhibition) antibiotic [6, 17]: 20 µg/mL

Compound: C=C(C)C(=O)NCCn1ccc(=O)c(O)c1C [MAHMP, 3-hydroxy-1-(β-methacrylamidoethyl)-2-methyl-4(1H)-pyridinone]
- growth of the yeast compared to control [1]: did not substantially restrict growth

Compound: C/C(=C\C(=O)OCCCCCCCCC(=O)O)C[C@@H]1OC[C@H](C[C@@H]2O[C@H]2[C@@H](C)[C@H](C)O)[C@@H](O)[C@H]1O [Mupirocin]
- MIC [2, 9]: > 512 µg/mL
- MIC [2, 10]: > 512 µg/mL
- MIC [3, 11]: 64 µg/mL
- MIC [3, 12]: 128 µg/mL (≈ 256 µM)
- MIC [4, 13]: 0.0156 µg/mL
- MIC [4, 14]: 0.0625 µg/mL (≈ 0.125 µM)

Compound: C[C@@H]1[C@H](O)[C@@H](C)/C=C/C=C/CC/C=C/C=C/C=C/C=C/C(O[C@H]2O[C@H](C)[C@@H](O)[C@H](N)[C@@H]2O)CC2O[C@](O)(CC(O)C(O)CCC(O)CC(O)CC(O)CC(=O)O[C@H]1C)CC(O)C2C(=O)O (stereo partly drawn) [Nystatin]
- Nystatin MIC ([7]; Nystatin alone, 4 d): 0.23 µg/mL
- Nystatin MIC ([7]; Nystatin alone, 10 d): 3.8 µg/mL
- Nystatin MIC ([7]; Nystatin alone, 21 d): 7.5 µg/mL
- Nystatin MIC ([7]; plus 25 μg/ml soluble chelator (example 4), 4 d): <0.12 µg/mL
- Nystatin MIC ([7]; plus 25 μg/ml soluble chelator (example 4), 10 d): 0.12 µg/mL
- Nystatin MIC ([7]; plus 25 μg/ml soluble chelator (example 4), 21 d): 0.47 µg/mL

Compound: COC(=O)c1ccc(O)cc1 [Paraben, methyl paraben]
- MIC ([8]; ATCC10231, 48 h, read-out: Sorbate or Paraben MIC, preservative alone, 2 days): 500 µg/mL (≈ 3290 µM)
- MIC ([8]; ATCC10231, 240 h, read-out: Sorbate or Paraben MIC, preservative alone, 10 days): 1000 µg/mL (≈ 6570 µM)

Compound: [H]/N=C(/N)N[C@H]1[C@H](O)[C@@H](O)[C@H](O[C@@H]2O[C@@H](C)[C@](O)(C=O)[C@H]2O[C@@H]2O[C@@H](CO)[C@H](O)[C@@H](O)[C@@H]2NC)[C@@H](N/C(N)=N\[H])[C@@H]1O [Streptomycin]
- MIC ([6]; Staphylococcus aureus, strain WBG525, no chelator added (control), read-out: MIC Streptomycin): > 640 µg/mL
- MIC (100% inhibition) antibiotic [6, 15]: >640 µg/mL
- MIC (100% inhibition) antibiotic [6, 16]: 640* μg/ml
- MIC (100% inhibition) antibiotic [6, 17]: 160* μg/ml

Compound: CN(C)[C@@H]1C(O)=C(C(N)=O)C(=O)[C@@]2(O)C(O)=C3C(=O)c4c(O)cccc4[C@@](C)(O)[C@H]3C[C@@H]12 [Tetracycline]
- MIC (100% inhibition) antibiotic [6, 18]: 40 µg/mL (≈ 90 µM)

Compound: Gentamcin
- MIC (100% inhibition) antibiotic ([6]; strain WBG1320, No Chelator Added (control), * slight growth <5% of control): 320* μg/ml
- MIC (100% inhibition) antibiotic ([6]; strain WBG1320, plus Soluble Chelating Composition (Example 6) 1.1 mM, * slight growth <5% of control): 40* μg/ml
- MIC (100% inhibition) antibiotic ([6]; strain WBG1320, plus Soluble Chelating Composition (Example 6) 2.2 mM, * slight growth <5% of control): 20* μg/ml

Compound: Neomycin
- MIC (100% inhibition) antibiotic [6, 18]: 1280 µg/mL
- MIC (100% inhibition) antibiotic ([6]; strain WBG4340, plus Soluble Chelating Composition (Example 6) 1.1 mM): 160 µg/mL
- MIC (100% inhibition) antibiotic ([6]; strain WBG4340, plus Soluble Chelating Composition (Example 6) 2.2 mM): 80 µg/mL
- MIC ([2]; Treated RPMI + 0.09 μM Fe): 16 µg/mL
- MIC ([2]; Untreated RPMI 0.11 μM Fe): 32 µg/mL
- MIC ([3]; Treated RPMI + 0.009 μM Fe): 2 µg/mL
- MIC ([3]; Untreated RPMI 0.11 μM Fe): 2 µg/mL
- MIC ([4]; Treated RPMI + 0.004 μM Fe): 1 µg/mL
- MIC ([4]; Untreated RPMI 0.11 μM Fe): 1 µg/mL

Compound: penicillin
- MIC penicillin ([6]; no chelator): 640 µg/mL
- MIC penicillin ([6]; plus 4.4 mM Fe binding equivalents soluble chelating composition (example 6)): 320 µg/mL
- MIC penicillin ([6]; plus iron-loaded chelating composition): did not lower the MIC
